# Tests used:
# [1] = molecular target: acetyl-cholinesterase (AChE) (Electrophorus electricus, UniProt O42275); assay type: biochemical
# Description: We investigated, in vitro, the inhibitory activity of a, b, c, and e derivatives on acetylcholinesterase activity using acetylthiocholine as a substrate [29].
# A modified procedure which was followed in our previous publication was performed [29]. A stock solution (10 mM) of the compounds diluted in DMSO was used (final concentration 100 µM).
# [2] = molecular target: T1, soybean lipoxygenase (Glycine max, UniProt P08170); assay: biochemical; assay type: biochemical; details: soybean LOX
# T1 sequence (P08170 1-839): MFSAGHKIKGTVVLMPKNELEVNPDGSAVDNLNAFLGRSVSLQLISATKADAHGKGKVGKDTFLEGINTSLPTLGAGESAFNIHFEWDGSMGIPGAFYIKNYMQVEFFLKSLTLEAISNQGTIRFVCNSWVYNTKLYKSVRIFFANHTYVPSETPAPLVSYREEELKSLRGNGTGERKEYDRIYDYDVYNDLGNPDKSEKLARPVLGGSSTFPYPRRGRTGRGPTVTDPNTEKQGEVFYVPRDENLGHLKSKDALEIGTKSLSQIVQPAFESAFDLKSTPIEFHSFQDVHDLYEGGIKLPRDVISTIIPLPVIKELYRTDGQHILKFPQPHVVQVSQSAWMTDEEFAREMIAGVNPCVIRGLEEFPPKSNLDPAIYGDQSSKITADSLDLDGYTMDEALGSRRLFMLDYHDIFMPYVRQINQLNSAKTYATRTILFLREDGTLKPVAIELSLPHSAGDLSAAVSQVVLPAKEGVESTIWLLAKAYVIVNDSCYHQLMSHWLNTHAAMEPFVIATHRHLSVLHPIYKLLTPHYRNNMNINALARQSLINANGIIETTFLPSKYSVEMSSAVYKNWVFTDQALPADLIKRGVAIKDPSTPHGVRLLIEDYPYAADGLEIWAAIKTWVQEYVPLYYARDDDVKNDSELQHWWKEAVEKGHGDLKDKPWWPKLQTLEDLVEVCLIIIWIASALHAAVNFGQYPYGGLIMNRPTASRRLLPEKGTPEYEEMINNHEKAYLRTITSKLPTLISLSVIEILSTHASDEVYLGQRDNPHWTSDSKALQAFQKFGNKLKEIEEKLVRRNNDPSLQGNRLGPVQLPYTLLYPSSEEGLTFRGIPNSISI
# Summary of the method: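 Soybean LOX (enzyme solution 1/9 × 10^−4 w/v in saline) incubated at room temperature with sodium linoleate ([…]) in tris buffer pH 9. Compounds added from DMSO stocks. IC50 derived from several concentrations.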
# [3] = Reducing activity with the stable radical DPPH
# Summary of the method: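 DPPH (final 0.05 mM) in absolute ethanol mixed with an equal volume of compound at 0.05 or 0.1 mM, ethanol as control. Absorbance at 517 nm read at room temperature after 20 and 60 min, expressed as reducing activity RA%.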
# [4] = Lipophilicity as RM values by RP-TLC; assay type: physicochemical; set-up: key: RM = log[(1/Rf) − 1]; details: methanol/water 70/30, SD < 10%
# Summary of the method: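 Reversed-phase TLC on silica gel plates impregnated with 5% (v/v) liquid paraffin, methanol/water 70/30 (v/v) mobile phase, saturated tanks at 24 °C, UV detection. RM = log[(1/Rf) − 1] from five Rf measurements.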
# [5] = ABTS•+ decolorization assay
# Summary of the method: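 Compounds (10 mM DMSO stocks, diluted) added to ABTS•+ radical generated by potassium persulfate oxidation of ABTS. Decolorization followed as absorbance at room temperature, with Trolox as standard.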
# [6] = Inhibition of linoleic acid lipid peroxidation (AAPH)
# Summary of the method: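 Sodium linoleate oxidation was initiated by AAPH in 0.05 M phosphate buffer, pH 7.4, at 37 °C, with test compound present and DMSO as blank. Conjugated diene hydroperoxide formation was followed as the absorbance increase at 234 nm.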
# [7] = system: L929 mouse fibroblasts cells; assay: Cytotoxicity, propidium iodide fluorescence method; assay type: cell-based; details: 24-h incubation
# Summary of the method: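 L929 cells in EMEM with 10% horse serum were allowed to attach for 24 h, then exposed to 1, 10, 20, 50 and 100 μM compound for 24 h at 37 °C. Cells were detached, stained with propidium iodide, and cell death was measured by flow cytometry.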
# Sequence of acetyl-cholinesterase (AChE) (O42275 24-633): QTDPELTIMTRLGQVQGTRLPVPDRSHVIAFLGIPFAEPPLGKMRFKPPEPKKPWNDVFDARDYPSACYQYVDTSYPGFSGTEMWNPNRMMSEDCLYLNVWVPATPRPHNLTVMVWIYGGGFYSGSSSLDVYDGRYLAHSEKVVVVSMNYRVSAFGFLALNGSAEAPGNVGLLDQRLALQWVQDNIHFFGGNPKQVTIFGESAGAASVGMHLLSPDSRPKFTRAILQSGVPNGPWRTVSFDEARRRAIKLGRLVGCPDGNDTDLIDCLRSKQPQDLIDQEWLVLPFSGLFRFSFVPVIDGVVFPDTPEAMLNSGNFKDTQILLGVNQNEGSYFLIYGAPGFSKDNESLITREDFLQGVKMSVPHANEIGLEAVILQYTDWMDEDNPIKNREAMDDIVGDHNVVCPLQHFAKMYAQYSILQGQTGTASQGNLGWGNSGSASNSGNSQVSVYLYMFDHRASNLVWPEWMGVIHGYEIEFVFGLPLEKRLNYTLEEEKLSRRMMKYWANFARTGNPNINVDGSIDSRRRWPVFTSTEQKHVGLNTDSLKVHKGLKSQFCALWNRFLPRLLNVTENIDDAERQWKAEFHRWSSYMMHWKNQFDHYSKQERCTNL
SMILES,% AChE Inhb. @ 100 μM [1],% LOX Inhb. @ 100 μM [2] [%],IC50 ([2]; read-out: LOX IC50) [µM],RA% 100 μM 20 min [3],RA% 100 μM 60 min [3],RM [4],ABTS•+ Inhb. % @ 100 μM [5],AAPH% @ 100 μM (anti-lipid peroxidation) [6] [%],1 μM Average (% pi) ± σ [7] [%],10 μM Average (% pi) ± σ [7] [%],20 μM Average (% pi) ± σ [7] [%],50 μM Average (% pi) ± σ [7] [%],100 μM Average (% pi) ± σ [7] [%]
"O=C(/C=C/c1c[nH]c2ccccc12)c1ccc(OCCCOc2ccc(C(=O)/C=C/c3c[nH]c4ccccc34)cc2)cc1 [c6, (2E,2′E)-1,1′-((propane-1,3-diylbis(oxy))bis(4,1-phenylene))bis(3-(1H-indol-3-yl)prop-2-en-1-one)]",did not present any activity and Νο,98,54,No,No,−0.97,No,100,1.12 ± 1.15,2.2 ± 1.66,1.16 ± 0.81,3.03 ± 0.02,3.03 ± 0.02
"O=C(/C=C/C1=C2C=CC=CC2NC1)c1ccc(O)cc1 (stereo not shown) [a6, (E)-3-(2,7a-dihydro-1H-indol-3-yl)-1-(4-hydroxyphenyl) prop-2-en-1-one]",Νο,60,,15%,2%,−0.65,No,45,1.71 ± 2.08,1.66 ± 0.59,3.25 ± 2.6,6.67 ± 1.35,6.67 ± 1.35
